SMILES strings stand for the structures. Where a name gives a salt, the structure may show the parent alone.

Sequence of Human D1 Receptor (P21728 whole entry): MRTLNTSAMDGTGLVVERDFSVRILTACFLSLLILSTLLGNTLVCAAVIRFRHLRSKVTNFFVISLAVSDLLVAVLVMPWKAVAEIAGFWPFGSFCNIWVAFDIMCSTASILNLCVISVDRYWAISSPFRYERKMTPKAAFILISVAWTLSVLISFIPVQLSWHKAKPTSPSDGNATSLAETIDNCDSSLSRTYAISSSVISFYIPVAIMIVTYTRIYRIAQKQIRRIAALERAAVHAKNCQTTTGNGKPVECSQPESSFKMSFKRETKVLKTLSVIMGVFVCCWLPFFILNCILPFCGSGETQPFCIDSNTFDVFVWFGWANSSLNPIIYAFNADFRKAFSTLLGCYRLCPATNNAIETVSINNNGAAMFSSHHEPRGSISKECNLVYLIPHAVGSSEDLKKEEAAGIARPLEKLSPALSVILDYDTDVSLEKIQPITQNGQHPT

The first experiment deals with Human D1 Receptor (Homo sapiens (Human), UniProt P21728). Kind of experiment: Human D1 receptor binding assay ([^3H]-SCH23390 competition binding). As to conditions: over-expressing LTK human cell lines; 0.5 nM [^3H]-SCH23390; 30 min at 37° C.; footnote a = single determination, b = geometric mean of ≧5 determinations; read-out: Human D1 Receptor Binding, Ki (nM); Geometric mean of 2-4 determinations (unless otherwise indicated). The procedure:
The affinity of the compounds described herein was determined by competition binding assays similar to those described in Ryman-Rasmussen et al., “Differential activation of adenylate cyclase and receptor internalization by novel dopamine D1 receptor agonists”, Molecular Pharmacology 68(4):1039-1048 (2005).
D1 binding assays were performed using over-expressing LTK human cell lines. […] These ligand and tissue concentrations were used in time course studies to determine linearity and equilibrium conditions for binding. Binding was at equilibrium with the specified amount of tissue in 30 minutes at 37° C. […] The pellet was resuspended in assay buffer [50 mM Tris (pH 7.4@ RT) containing 4 mM MgSO4 and 0.5 mM EDTA]. […] Non-specific binding was determined by radioligand binding in the presence of a saturating concentration of (+)-Butaclamol (10 μM), a D1 antagonist. After a 30 minute incubation period at 37° C., assay samples were rapidly filtered through Unifilter-96 GF/B PEI-coated filter plates and rinsed with 50 mM Tris buffer (pH 7.4 at 4° C.). […] The IC50 value (concentration at which 50% inhibition of specific binding occurs) was calculated by linear regression of the concentration-response data in Microsoft Excel. Ki values were calculated according to the Cheng-Prusoff equation: […]
With `Cc1n[nH]c(=O)c(C)c1-c1ccc(Oc2nccc3c2CCO3)cc1C#N` [Example 26, 5-(2,3-dihydrofuro[3,2-c]pyridin-4-yloxy)-2-(3,5-dimethyl-6-oxo-1,6-dihydropyridazin-4-yl)benzonitrile], the Ki was 162 nM.

`Cc1cc(Oc2nccc3c2CCO3)ccc1-c1c(C)n[nH]c(=O)c1C` [Example 7, (−)-5-[4-(2,3-Dihydrofuro[3,2-c]pyridin-4-yloxy)-2-methylphenyl]-4,6-dimethylpyridazin-3(2H)-one]: the inhibition constant (Ki) came to 12.7 nM.

As to `Cc1cc(Oc2nccc3c2CCO3)ccc1-c1c(C)ncc(=O)n1C` (single isomer, unassigned) [Example 23, (+)-6-[4-(2,3-dihydrofuro[3,2-c]pyridin-4-yloxy)-2-methylphenyl]-1,5-dimethylpyrazin-2(1H)-one], the Ki came to 706 nM.

For `Cc1cc(Oc2nccc3c2CCO3)ccc1-c1c(C)n[nH]c(=O)c1C` [Example 6, (+)-5-[4-(2,3-Dihydrofuro[3,2-c]pyridin-4-yloxy)-2-methylphenyl]-4,6-dimethylpyridazin-3(2H)-one], the Ki turned out to be 12.6 nM.

For `Cc1c(-c2ccc(Oc3ncnc4c3CCN4)cc2)n(C)c(=O)[nH]c1=O` [Example 27, 6-[4-(6,7-dihydro-5H-pyrrolo[2,3-d]pyrimidin-4-yloxy)phenyl]-1,5-dimethylpyrimidine-2,4(1H,3H)-dione], the Ki stood at 44.4 nM.

As for `Cc1cc(Oc2nccc3c2CCO3)ccc1-c1c(C)ncc(=O)n1C` [Example 21, 6-[4-(2,3-dihydrofuro[3,2-c]pyridin-4-yloxy)-2-methylphenyl]-1,5-dimethylpyrazin-2(1H)-one], the Ki is 82.5 nM.

Regarding `Cc1cc(Oc2nccc3c2CCN3)ccc1-c1c(C)ncc(=O)n1C` (single isomer, unassigned) [Example 24, (+)-6-[4-(2,3-dihydro-1H-pyrrolo[3,2-c]pyridin-4-yloxy)-2-methylphenyl]-1,5-dimethylpyrazin-2(1H)-one], the Ki was 201 nM.

For `Cc1cc(Oc2ncnc3c2CCN3)ccc1-c1c(C)ncnc1C` [Example 19, 4-[4-(4,6-dimethylpyrimidin-5-yl)-3-methylphenoxy]-6,7-dihydro-5H-pyrrolo[2,3-d]pyrimidine], the inhibitory constant (Ki) is 156 nM.

Regarding `Cc1cc(Oc2nccc3c2CCO3)ccc1-c1c(C)n[nH]c(=O)c1C` [Example 5, 5-[4-(2,3-Dihydrofuro[3,2-c]pyridin-4-yloxy)-2-methylphenyl]-4,6-dimethylpyridazin-3(2H)-one], the Ki was found to be 14 nM.

In the case of `Cc1cc(Oc2nccc3c2CCO3)ccc1-c1c(C)ncnc1C` [Example 1, 4-[4-(4,6-Dimethylpyrimidin-5-yl)-3-methylphenoxy]-2,3-dihydrofuro[3,2-c]pyridine], the Ki was determined as 76.8 nM.

Regarding `Cc1c(-c2ccc(Oc3ncnc4c3CCC4)cc2)n(C)c(=O)[nH]c1=O` [Example 28, 6-[4-(6,7-dihydro-5H-cyclopenta[d]pyrimidin-4-yloxy)phenyl]-1,5-dimethylpyrimidine-2,4(1H,3H)-dione], the Ki came out at 202 nM.

For the compound `Cc1cc(Oc2nccc3c2CCN3)ccc1-c1c(C)n[nH]c(=O)c1C` (single isomer, unassigned; ent-1) [Example 9, 5-[4-(2,3-Dihydro-1H-pyrrolo[3,2-c]pyridin-4-yloxy)-2-methylphenyl]-4,6-dimethylpyridazin-3(2H)-one, ENT-1], the inhibition constant Ki amounted to 35.6 nM.

On to `Cc1cc(Oc2ncnc3c2CCC3)ccc1-c1c(C)ncnc1C` [Example 20, 4-[4-(4,6-dimethylpyrimidin-5-yl)-3-methylphenoxy]-6,7-dihydro-5H-cyclopenta[d]pyrimidine], for which the Ki was found to be 446 nM.

Turning to `Cc1cc(Oc2nccc3c2CCO3)ccc1-c1c(C)ncc(=O)n1C` (single isomer, unassigned) [Example 22, (−)-6-[4-(2,3-dihydrofuro[3,2-c]pyridin-4-yloxy)-2-methylphenyl]-1,5-dimethylpyrazin-2(1H)-one], the Ki was 202 nM.

Consider `Cc1cc(Oc2nccc3c2CCN3)ccc1-c1c(C)n[nH]c(=O)c1C` (single isomer, unassigned; ent-2) [Example 10, 5-[4-(2,3-Dihydro-1H-pyrrolo[3,2-c]pyridin-4-yloxy)-2-methylphenyl]-4,6-dimethylpyridazin-3(2H)-one, ENT-2], for which the Ki is 50.5 nM.

In the case of `Cc1cc(Oc2nccc3c2C(O)CO3)ccc1-c1c(C)n[nH]c(=O)c1C` (stereo not drawn) [Example 16, 5-{4-[(3-Hydroxy-2,3-dihydrofuro[3,2-c]pyridin-4-yl)oxy]-2-methylphenyl}-4,6-dimethylpyridazin-3(2H)-one], the inhibition constant Ki was determined as 4.8 nM.

Consider `Cc1c(-c2ccc(Oc3nccc4c3CCN4)cc2)n(C)c(=O)[nH]c1=O` [Example 12, 6-[4-(2,3-Dihydro-1H-pyrrolo[3,2-c]pyridin-4-yloxy)phenyl]-1,5-dimethylpyrimidine-2,4(1H,3H)-dione], for which the Ki is 11.1 nM.

Regarding `Cc1cc(Oc2nccc3c2CCN3)ccc1-c1c(C)ncc(=O)n1C` (single isomer, unassigned) [Example 25, (−)-6-[4-(2,3-dihydro-1H-pyrrolo[3,2-c]pyridin-4-yloxy)-2-methylphenyl]-1,5-dimethylpyrazin-2(1H)-one], the Ki was found to be 75.8 nM.

Consider `Cc1c(-c2ccc(Oc3nccc4c3CCO4)cc2)n(C)c(=O)[nH]c1=O` [Example 13, 6-[4-(2,3-Dihydrofuro[3,2-c]pyridin-4-yloxy)phenyl]-1,5-dimethylpyrimidine-2,4(1H,3H)-dione, trifluoroacetate salt], for which the Ki worked out at 46.1 nM.

For `Cc1cc(Oc2nccc3c2CCO3)ccc1-c1c(C)ncc2nccn12` [Example 18, 5-[4-(2,3-dihydrofuro[3,2-c]pyridin-4-yloxy)-2-methylphenyl]-6-methylimidazo[1,2-a]pyrazine], the Ki was 52.1 nM.

For the compound `Cc1cc(Oc2nccc3c2CCN3)ccc1-c1c(C)n[nH]c(=O)c1C` [Example 8, 5-[4-(2,3-Dihydro-1H-pyrrolo[3,2-c]pyridin-4-yloxy)-2-methylphenyl]-4,6-dimethylpyridazin-3(2H)-one], the Ki was 8.4 nM.

Staying with this experiment, now noted: read-out: Human D1 Receptor Binding, Ki (nM); Geometric mean of 2-4 determinations (unless otherwise indicated).
As to `Cc1cc(Oc2nccc3c2CCCN3)ccc1-c1c(C)n[nH]c(=O)c1C` [Example 15, 4,6-Dimethyl-5-[2-methyl-4-(1,2,3,4-tetrahydro-1,6-naphthyridin-5-yloxy)phenyl]pyridazin-3(2H)-one], the Ki is 18.1 nM.

Turning to `Cc1cc(Oc2nccc3c2CCN3)ccc1-c1c(C)ncnc1C` [Example 2, 4-[4-(4,6-Dimethylpyrimidin-5-yl)-3-methylphenoxy]-2,3-dihydro-1H-pyrrolo[3,2-c]pyridine], the Ki is 78.1 nM.

With `Cc1n[nH]c(=O)c(C)c1-c1ccc(Oc2nccc3c2CCN3)cc1` [Example 4, 5-[4-(2,3-Dihydro-1H-pyrrolo[3,2-c]pyridin-4-yloxy)phenyl]-4,6-dimethylpyridazin-3(2H)-one], the Ki stood at 14 nM.

On to `Cc1cc(Oc2nccc3c2CCCO3)ccc1-c1c(C)n[nH]c(=O)c1C` [Example 14, 5-[4-(3,4-Dihydro-2H-pyrano[3,2-c]pyridin-5-yloxy)-2-methylphenyl]-4,6-dimethylpyridazin-3(2H)-one], for which the inhibition constant (Ki) was determined as 70.3 nM.

Take `Cc1n[nH]c(=O)c(C)c1-c1ccc(Oc2ncnc3c2CCN3)cc1` [Example 11, 5-[4-(6,7-Dihydro-5H-pyrrolo[2,3-d]pyrimidin-4-yloxy)phenyl]-4,6-dimethylpyridazin-3(2H)-one]: the Ki was 60.4 nM.

Regarding `Cc1cc(Oc2nccc3c2C(O)CO3)ccc1-c1c(C)ncnc1C` (stereo not drawn) [Example 17, 4-[4-(4,6-Dimethylpyrimidin-5-yl)-3-methylphenoxy]-2,3-dihydrofuro[3,2-c]pyridin-3-ol], the Ki is 28.9 nM.

The values above are taken from US9745317B2, “Heterocyclic compounds and their use as dopamine D1 ligands” (PFIZER INC., priority 2014, dated 2017).
